What was measured:
β-catenin = assay: Total β-catenin ELISA of cells; type: cell-based, Human; settings: for duration / decay of effect on β-catenin after GSK3β inhibition: CDCs, BIO (reversible) vs tideglusib (irreversible)
Method: (§1) Cell lysates were collected for ELISA and western blot. For ELISA, 4×10^5 cells were collected and pelleted at 1,000 rpm for 5 min at 4° C. Cell pellets were lysed in 1× lysis buffer (Affymetrix eBioscience InstantOne ELISA kit) and incubated for 10 min at room temperature with regular agitation. For western blot, cells were pelleted and resuspended in 1× RIPA buffer (Alfa Aesar) with protease inhibitor on ice for 30 min. Protein lysates were isolated by centrifugation at 14,000 rpm for 15 min at 4° C. Protein concentration was measured using a DC™ Protein Assay kit (Bio-Rad).
(§2) Cells were exposed to 5 μM of 6-bromoindirubin-3′-oxime (BIO, Sigma-Aldrich) or 4-Benzyl-2-(naphthalene-1-yl)-[1,2,4]thiadiazolidine-3,5-dione (Tideglusib, Sigma-Aldrich) for 48 or 72 hours in complete media.
Total β-catenin ELISA was performed according the protocol described with a final sample concentration of 0.01 mg/ml and positive control of 0.1 mg/ml (Affymetrix eBioscience InstantOne™ ELISA).

CDCs [1] = assay: Flow cytometry of CD90, CD105, DDR2 and LRP5/6; type: cell-based, Human
Method: as §2
Cells were harvested and counted (2×10^5 cells per condition). Cells were washed with 1% bovine serum albumin (BSA) in 1× phosphate-buffered saline (PBS) and stained with the appropriate antibody (BD Pharmingen) for 1 hr at 4° C. Cells were then washed again and resuspended in 1% BSA in 1×PBS. BD Cytofix/Cytoperm™ kit was used for cell permeabilization before staining. Flow analysis was done using a BD FACS Canto™ II instrument.

CDCs [2] = assay: RNA sequencing and qPCR of BIO-exposed versus vehicle-exposed CDCs (LP, LPL, imCDC); type: cell-based, Human
Method: Cell RNA was isolated using a miRNeasy Mini Kit (Qiagen). Exosome RNA was isolated using the Urine Exosome RNA Isolation Kit (Norgen Biotek Corp.). Reverse transcription was performed using High Capacity RNA to cDNA (Thermo Fisher Scientific) or TaqMan® microRNA Reverse Transcription Kit (Applied Biosystems) for RNA and micro RNA, respectively. Real-time PCR was performed using TaqMan Fast Advanced Master Mix and the appropriate TaqMan® Gene Expression Assay (Thermo Fisher Scientific). Samples were processed and analyzed using a QuantStudio™ 12K Flex Real-Time PCR system and each reaction was performed in triplicate samples (with housekeeping genes hprt1 for mRNA and miR23a for microRNA). The gene expression assays/microRNAs used in this study were as follows (Thermo Fisher Scientific):
Cell and exosome RNA samples were sequenced at the Cedars Sinai Genomics Core. Total RNA and Small RNA were analyzed using an Illumina NextSeq 500 platform for cell and exosome samples respectively.
as §2
To understand how β-catenin drives potency, the transcriptomes of LP CDCs to those of the same cell batches after exposure to BIO were compared. As stated above, three scenarios associated with low potency were identified: donor-related, in which all lots from a given donor lack potency; lot-dependent, in which some lots are potent and others are not; and immortalized CDCs (imCDCs). Using RNA sequencing, LP cells from each scenario were compared after exposure to BIO versus vehicle alone. […] Differential expression of microRNAs (miRs) between the two groups further identified a cognate miR coregulated with mest (miR-335; FIG. 3C, FIGS. 9D and 9E). […] Mest modulates Wnt/β-catenin signaling indirectly through glucosyltransferases that prevent LRP5/6 receptor maturation. […]

EXTL1 = assay: Western blot of EXTL1 protein; type: cell-based, Human; settings: CDC (LP) exposure to BIO
Method: as §1

[3] = system: SCID/beige mice with acute myocardial infarction; assay: Mouse acute MI model (echocardiography, Masson's trichrome histology, mortality); type: in vivo; settings: for myocardial function in mice with MI, drugs given independent of CDCs: relative to controls
Method: Acute myocardial infarction was induced in three-month-old male severe combined immunodeficient (SCID)/beige mice (n=5-7 animals per group). Within 10 min of coronary ligation, 1×10^5 cells, EVs, drugs (or vehicle) were injected intramyocardially.
Echocardiography. Echocardiography study was performed in the SCID/beige at 24 hr (baseline) and three weeks after surgery using Vevo 3100 or 770 Imaging System (Visual Sonics) as described. The average of the left ventricular ejection fraction was analyzed from multiple left ventricular end-diastolic and left ventricular end-systolic measurements.
Animals were sacrificed 3 weeks after MI induction. Hearts were harvested and a transverse cut was made slightly above the MI suture. The apical portion was then embedded in optimum cutting temperature solution in a base mold/embedding ring block (Tissue Tek). Blocks were immediately frozen by submersion in cold 2-methylbutane. Hearts were sectioned at a thickness of 5 μm.
Two slides containing a total of four sections per heart were stained using Masson's trichrome stain. In brief, sections were treated overnight in Bouin's solution. Slides were then rinsed for 10 min under running water and stained with Weigert's hematoxylin for 5 min. Slides were then rinsed and stained with scarlet-acid fuchsin for 5 min and rinsed again. Slides were then stained with phosphotungstic/phosphomolybdic, aniline blue, and 2% acetic acid for 5 min each. Slides were then rinsed, dried, and mounted using DPX mounting media.

immortalized CDCs = type: cell-based, Human
Method: as §2

CDC EVs = assay: qPCR of miRs in EVs from BIO-exposed versus vehicle-exposed CDCs; type: cell-based, Human; settings: EVs of LP, LPL, imCDC exposed to BIO vs vehicle
Method: Extracellular Vesicles were harvested from primary CDCs at passage 5 or older passages from transduced cells using a hypoxic cycling method used previously. Briefly, cells were grown to confluence at 20% O2/5% CO2 at 37° C., and then cells were serum-free at 2% O2/5% CO2 at 37° C. overnight after one wash. Conditioned media was collected and filtered through 0.45 μm filter to remove apoptotic bodies and cellular debris and frozen for later use at −80° C. EVs were purified using centrifugal ultrafiltration with a 1000 KDa molecular weight cutoff filter (Sartorius). EV preparations were analyzed through Malvern Nanosight NS300 Instrument (Malvern Instruments) with the following acquisition parameters: camera levels of 15, detection level less than or equal to 5, number of videos taken 4, and video length of 30 s.
Cell RNA was isolated using a miRNeasy Mini Kit (Qiagen). Exosome RNA was isolated using the Urine Exosome RNA Isolation Kit (Norgen Biotek Corp.). Reverse transcription was performed using High Capacity RNA to cDNA (Thermo Fisher Scientific) or TaqMan® microRNA Reverse Transcription Kit (Applied Biosystems) for RNA and micro RNA, respectively. […] Samples were processed and analyzed using a QuantStudio™ 12K Flex Real-Time PCR system and each reaction was performed in triplicate samples (with housekeeping genes hprt1 for mRNA and miR23a for microRNA). […]

| Compound | duration / decay of effect on β-catenin after GSK3β inhibition (β-catenin) | concentration at which BIO is maximally effective in CDCs (β-catenin ELISA) (β-catenin; CDCs exposed to increasing concentrations of BIO) [µM] | β-catenin levels (β-catenin; LP CDC line exposed to 5 μM BIO vs vehicle) | expression of CD90 (CDCs [1]; BIO-exposed LP cells) | expression of CD105 (CDCs [1]; BIO-exposed LP cells) | expression of DDR2 (CDCs [1]; BIO-exposed LP cells) | LRP5/6 level (flow cytometry) (CDCs [1]; LP CDCs exposed to BIO) | miR-335 expression in cells (CDCs [2]; BIO vs vehicle, LP, LPL and imCDC) | downregulation of mest (CDCs [2]; BIO vs vehicle, fold changes pooled over LP, LPL and imCDC) [fold] | LRP5/6 transcripts (CDCs [2]; BIO-exposed LP, LPL and imCDCs, qPCR) | EXTL1 protein levels (EXTL1) | potency of immortalized CDCs after exposure to BIO ([3]; imCDC pre-exposed to BIO, then injected) | myocardial function in mice with MI, drugs given independent of CDCs [3] | cell growth and viability (immortalized CDCs) | EV levels of miR-335 (CDC EVs) |
| --- | --- | --- | --- | --- | --- | --- | --- | --- | --- | --- | --- | --- | --- | --- | --- |
| O=c1sn(-c2cccc3ccccc23)c(=O)n1Cc1ccccc1 [Tideglusib, 4-Benzyl-2-(naphthalene-1-yl)-[1,2,4]thiadiazolidine-3,5-dione] | directionally similar but longer-lasting effects |  |  |  |  |  |  |  |  |  |  |  |  |  |  |
| O=C1Nc2cc(Br)ccc2/C1=C1/Nc2ccccc2/C1=N\O [BIO, 6-bromoindirubin-3′-oxime] | more rapid decay of effect | 5 | increase β-catenin levels | decreased the expression of CD90 | without affecting | without affecting | upregulated its glycosylation target LRP5/6 (although that difference was not statistically significant | downregulated | ~30 | unchanged | decreased EXTL1 protein levels | restored potency | Neither BIO nor the canonical Wnt inhibitor JW67 significantly altered myocardial function | cell growth and viability were undermined | decreased significantly |
| O=C1Nc2ccccc2C12OCC1(CO2)COC2(OC1)C(=O)Nc1ccccc12 (centres unmarked) [JW67] |  |  |  |  |  |  |  |  |  |  |  |  | Neither BIO nor the canonical Wnt inhibitor JW67 significantly altered myocardial function |  |  |

Reference: patent US20220218757A1, “THERAPEUTICALLY ACTIVE CELLS AND EXOSOMES” (Cedars-Sinai Medical Center, priority 2019, published 2022)
